Measurements reported in patent publication US8822523B2, “Carboxamide microbiocides” (Syngenta Participations AG, priority 2011, dated 2014).

Columns and labels:
[1] = system: Mycosphaerella graminicola (Septoria tritici); test: Mycosphaerella graminicola (Septoria tritici) / liquid culture (Septoria blotch); format: cell-based; details: Zymoseptoria tritici, 96 h; 200 ppm active ingredient, PDB potato dextrose broth, 24° C., photometrically after 4 days; read-out: fungal growth inhibition
Procedure: Mycosphaerella graminicola (Septoria tritici)/Liquid Culture (Septoria blotch)
(§1) Conidia of the fungus from cryogenic storage were directly mixed into nutrient broth (PDB potato dextrose broth). After placing a (DMSO) solution of the test compounds (200 ppm active ingredient) into a microtiter plate (96-well format) the nutrient broth containing the fungal spores was added. The test plates were incubated at 24° C. and the inhibition of growth was measured photometrically after 4 days. The activity of a compound was expressed as fungal growth inhibition (0=no growth inhibition, ratings of 80% to 99% mean good to very good inhibition, 100%=complete inhibition).

[2] = system: Mycosphaerella arachidis (Cercospora arachidicola); test: Mycosphaerella arachidis (Cercospora arachidicola) / liquid culture (early leaf spot); format: cell-based; details: 200 ppm active ingredient, PDB potato dextrose broth, 24° C., photometrically after 6-7 days, read-out: fungal growth inhibition
Procedure: Mycosphaerella arachidis (Cercospora arachidicola)/Liquid Culture (Early Leaf Spot)
as §1, with “after 6-7” for “after 4”

Puccinia recondita [3] = test: Puccinia recondita / wheat / leaf disc preventative (brown rust); format: in vivo; details: foliar, 200 ppm active ingredient, wheat leaf segments, preventive, assessed 8 dpi, read-out: fungal growth inhibition
Procedure: Puccinia recondita/Wheat/Leaf Disc Preventative (Brown Rust)
Wheat leaf segments were placed on agar in multiwell plates (24-well format) and sprayed with test solutions (200 ppm active ingredient). After drying, the leaf disks were inoculated with a spore suspension of the fungus. After appropriate incubation the activity of a compound was assessed 8 dpi (days after inoculation) as preventive fungicidal activity. The activity of a compound was expressed as fungal growth inhibition (0=no growth inhibition, ratings of 80% to 99% mean good to very good inhibition, 100%=complete inhibition).

Puccinia recondita [4] = test: Puccinia recondita / wheat / leaf disc curative (brown rust); format: in vivo; details: foliar, 24 h, 200 ppm active ingredient applied one day after inoculation, wheat leaf segments, assessed 8 dpi, read-out: fungal growth inhibition
Procedure: Puccinia recondita/Wheat/Leaf Disc Curative (Brown Rust)
Wheat leaf segments were placed on agar in multiwell plates (24-well format). The leaf disks were then inoculated with a spore suspension of the fungus One day after inoculation the test solution was applied (200 ppm active ingredient). After appropriate incubation the activity of a compound was assessed 8 dpi (days after inoculation) as curative fungicidal activity. The activity of a compound was expressed as fungal growth inhibition (0=no growth inhibition, ratings of 80% to 99% mean good to very good inhibition, 100%=complete inhibition).

Measured: inhibition at 200 ppm

Cn1cc(C(=O)NOCC2CCCCc3cc(C#CC(C)(C)C)sc32)c(C(F)F)n1 (stereo not shown) [Compound 2.47, 3-Difluoromethyl-1-methyl-1H-pyrazole-4-carboxylic acid [2-(3,3-dimethylbut-1-ynyl)-5,6,7,8-tetrahydro-4H-cyclohepta[b]thiophen-8-yl]methoxy amide]
≥ 80%: all assays above
